{"source": "patent US20250177367A1", "about": "“COMBINATION THERAPIES FOR MODULATION OF LIPID PRODUCTION” (Ohio State Innovation Foundation, priority 2022, published 2025)", "key": {"SREBP-1/2 cleavage": {"test_system": "SREBP-1/2 cleavage", "assay": "Western blot of SREBP cleavage and FASN/SCD1 expression in GBM cells", "assay_type": "cell-based, human", "conditions": "for pimozide-stimulated SREBP-1 activation, FASN/SCD1 and ASCT2 expression: with pimozide 5 μM, 24 hr, GBM30, U373 or U251", "description": "P, precursor of SREBP; N, N-terminus of SREBP-1. C, C-terminus of SREBP-2.\n4 mM glutamine and […] pyruvate.\n(§1) Western Blot. Cells were lysed with RIPA buffer containing a protease inhibitor cocktail and phosphatase inhibitors. The proteins were separated on 12% SDS-PAGE, and transferred onto an ECL nitrocellulose membrane (#1620112, Bio-Rad). After blocking for 1.5 hr in 5% non-fat dried milk diluted by Tris-buffered saline containing 0.1% Tween 20, the membranes were incubated with various primary antibodies, followed by appropriate secondary antibodies conjugated to horseradish peroxidase."}, "H1299 and U87 cells": {"test_system": "H1299 and U87 cells", "assay": "Ammonia, glutamate and α-KG levels after GPNA or CB-839", "assay_type": "cell-based", "conditions": "for levels of glutamate, ammonia, and α-KG in cells and in cell culture media: GPNA 5 mM or CB-839 100 nM, 12 hr; for glutamine consumption: H1299 and U87 cells", "description": "The results are presented as mean±SEM (n=3). H1299 or U87 cells were cultured in RMPI 1640 or DMEM medium supplemented with 5% FBS for 24 hr. Cells then were washed with PBS once and treated with/without GPNA (5 mM) or CB-839 (100 nM) in the presence of glutamine (4 mM) and glucose (5 mM) under the fresh serum-free RMPI 1640 or DMEM medium for 12 hr before analysis. Cell culture conditions prior to treatment are the same for the subsequent panels unless otherwise stated.\nAnalysis of Metabolites in Cell Culture Medium. Metabolite levels in culture medium, including glucose, glutamine, lactate, glutamate, and NH4+, were measured using the Nova Bioprofile 100 Plus Bioanalyzer (Nova Biomedical). H1299 (4×105) or U87 (3×105) cells were seeded in 60 mm dish for 24 hr. After the cells were washed with PBS, they were switched to 2.5 ml serum-free medium with glucose (5 mM) and glutamine (4 mM) for 12 hr. The culture or control media (without cultured cells) were centrifuged at 12,000 rpm for 1 min and run on the bioanalyzer. Cell numbers were determined by using a hemocytometer after trypan blue staining. Consumption of glucose and glutamine or production of lactate, glutamate, and NH4+ under each experimental condition was calculated by subtracting their levels in control medium and normalizing to cell numbers.\n(§2) Measures of Ammonia Levels in Tissues, Cells and bound to SCAP. To measure ammonia levels in tumors and normal tissues, 10 mg of tissues were collected and lysed through homogenization on ice in the ammonia assay buffer (100 l) from the commercial kit. The lysates were centrifuged at 20,000×g for 5 min at 4° C. and the ammonia levels in the supernatants were measured by the ammonia assay kit following the manufacturer's instructions (#ab83360, Abcam). For measurement of SCAP-bound ammonia, a total of 1.3×10^7 HEK293T cells was seeded in 15 cm dishes for 24 hr. The cells were transfected with GFP, GFP-SCAP wild-type, or D428A mutant together with myc-Insig1 plasmids for 24 hr, and then washed with PBS, followed by addition of fresh DMEM medium containing glucose (5 mM) and NH4Cl (4 mM) for 2 hr in the absence of glutamine. […]"}, "SREBP activation": {"test_system": "SREBP activation", "assay": "Western blot of GBM30 cells treated with CB-839 with glutamine, glutamate or NH4Cl", "assay_type": "cell-based, human", "conditions": "12 hr", "description": "as §1"}, "[1]": {"test_system": "H1299 cells-derived xenograft", "assay": "H1299-derived xenograft mouse model treated with CB-839", "assay_type": "in vivo, mice", "conditions": "CB-839 30 mg/kg, i.p., twice per day for 3 days", "description": "The treatment started when the tumor size reached 200 mm^3. […] Scale bars, 50 m. The expression levels were quantified by using ImageJ to analyze 4 images per tumor and 3 tumors in each group.\nas §2"}, "U251 cells [2]": {"test_system": "U251 cells", "assay": "Confocal imaging of mitochondria and ROS (MitoTracker / CellROX Deep Red)", "assay_type": "cell-based", "conditions": "GSH 3 mM", "description": "ROS levels were quantified in more than 100 cells (mean±SEM). Sp<0.0001. Scale bar, 10 μm.\nDON (10 μM) or CB-839 (I00 nM) in combination as in (A) in the presence or absence of PA (palmitate, 20 μM) and OA (oleic acid, 20 μM) and cholesterol (3 μg/ml) for 24 hr."}, "U251 cells [3]": {"test_system": "U251 cells", "assay": "Micrographs of U251 cell growth", "assay_type": "cell-based", "conditions": "GSH 3 mM, 48 hr", "description": "DON (10 μM) or CB-839 (100 nM) alone or in combination as in (A) in the presence or absence of GSH (3 mM) for 48 hr.\nMicrographs show the growth of U251 cells treated with/without pimozide (2, 3 μM), perphenazine (3, 5 μM), GPNA (1 mM), or CB-839 (100 nM). Cells were cultured in 5% FBS full medium for 24 hr. Cells were then washed with PBS twice and treated in 1% FBS with the presence of 5 mM Glucose, 4 mM Glutamine and 1 mM Pyruvate in fresh serum-free medium for 48 hr. Scale bar, 100 μm."}, "SREBP-1 and -2 cleavage": {"test_system": "SREBP-1 and -2 cleavage", "assay": "SREBP activation by metabolites in H1299 or U87 cells (western blot, IF)", "assay_type": "cell-based", "conditions": "for SREBP-1 translocation into the nucleus: in the presence of glucose, without glutamine, 12 hr", "description": "FIG. 1C show the western blot analysis of whole lysates from H1299 or U87 cells after NH4Cl stimulation at the indicated doses for 12 hr. in the presence of glucose (5 mM) under serum-free culture conditions.\nNuclei were stained with DAPI (blue). Scale bars, 10 m. The nuclear intensity of SREBP-1 was quantified over 30 cells by ImageJ (mean±SEM) and shown below. Significance was determined by unpaired Student's t test. *p<0.05, ^sp<0.001, #p<0.0001; N.S. not significant.\nas §1, with “The proteins were separated on 12% SDS-PAGE, and transferred onto an ECL nitrocellulose membrane (#1620112, Bio-Rad).” left out\nImmunofluorescence. Cells grown on coverslips were washed with PBS twice and fixed with 4% formaldehyde for 15 min, then permeabilized with 0.1% Triton X-100/PBS for 5 min and blocked by 3% bovine serum albumin for 30 min at room temperature. […] Cells were washed three times with PBS in a dark chamber."}, "ASCT2": {"test_system": "ASCT2", "assay": "ASCT2 expression (western blot of membrane extracts, immunofluorescence)", "assay_type": "cell-based, human", "conditions": "pimozide 5 μM with cholesterol 3 μg/ml, 24 hr", "from_the_text": "Transferring receptor-1(CD71), an integral membrane protein that mediates the uptake of transferrin-iron complexes, was used as a membrane loading control for ASCT2. […] Nuclei were stained with DAPI (blue)."}, "[4]": {"test_system": "normal human astrocytes (NHA)", "assay": "Effect of PMZ on normal human astrocytes", "assay_type": "cell-based", "conditions": "doses up to 10 μM, 6 days", "description": "Statistical significance was analyzed by one-way ANOVA."}, "GBM30-derived xenograft [5]": {"test_system": "GBM30-derived xenograft", "conditions": "mouse, in vivo", "procedure": "(§3) Mice were implanted with 3×10^6 GBM30 cells in flank. When tumor volume reached to 80 mm^3, pimozide (15, 30, 60 mg/kg/day) or vehicles were administered to mice via intraperitoneal injection for 14 days.\n(§4) GBM30 cells were implanted in mice to form tumor same as FIG. 12A. Mice were started treatment when tumor volume reached to ˜80 mm^3 by pimozide (15 mg/kg/day) and fatostatin (25 mg/kg/day) alone or combination for 16 days. The tumors were isolated from mice at day 14 post-treatment and imaged. Data are shown as mean±SD (n=6).\n(§5) Data are shown as mean±SD(n=6). Significance was determined by one-way ANOVA with Dunnett's multiple comparisons adjustment. *p<0.002. Tumor diameter was measured using vernier caliper and calculated as V=L×S×S/2 (S refers to short diameter, L means long diameter, V is tumor volume).\n(§6) Mice were implanted with 3×10^6 GBM30 cells in flank. When tumor volume reached to ˜80 mm^3, pimozide (15 mg/kg/day), GPNA (50 mg/kg/day), DON (0.2 mg/kg/day), or CB-839 (25 mg/kg/day) alone or in combination were administered to mice via intraperitoneal injection for 14 days.\n(§7) Data are shown as mean±SEM (n=6). Significance was determined by one-way ANOVA with Dunnett's multiple comparisons adjustment. *p<0.002."}, "GBM30-derived xenograft [6]": {"test_system": "GBM30-derived xenograft", "assay": "GBM30-derived flank xenograft model", "conditions": "60 mg/kg dose", "procedure": "as §3, §4, §5, §6, §7"}}, "note": "Entries after “also recorded” stand apart in the source; their conditions may differ."}
{"compound": "O=C(Cc1cccc(OC(F)(F)F)c1)Nc1ccc(CCCCc2nnc(NC(=O)Cc3ccccn3)s2)nn1", "note": "[CB-839, telaglenastat]", "values": [{"measurement": "pimozide-stimulated SREBP-1 activation, FASN/SCD1 and ASCT2 expression", "setting": "SREBP-1/2 cleavage", "result": "completely abolished"}, {"measurement": "levels of glutamate, ammonia, and α-KG in cells and in cell culture media", "setting": "H1299 and U87 cells", "result": "dramatically reduced"}, {"measurement": "glutamine consumption", "setting": "H1299 and U87 cells", "result": "significant reduction"}, {"measurement": "SREBP activation", "setting": "SREBP activation; CB-839 200 nM", "result": "SREBP activation inhibited by CB-839"}, {"measurement": "ammonia levels in tumor tissues", "setting": "[1]", "result": "reduction"}, {"measurement": "SREBP-1 levels in tumors (IHC)", "setting": "[1]; vs vehicle", "result": "significantly reduced"}]}
{"compound": "Cl.N[C@@H](CCC(=O)Nc1ccc([N+](=O)[O-])cc1)C(=O)O", "note": "[GPNA, gamma-L-Glutamyl-p-nitroanilide Hydrochloride]", "values": [{"measurement": "pimozide-stimulated SREBP-1 activation, FASN/SCD1 and ASCT2 expression", "setting": "SREBP-1/2 cleavage", "result": "completely abolished"}, {"measurement": "levels of glutamate, ammonia, and α-KG in cells and in cell culture media", "setting": "H1299 and U87 cells", "result": "dramatically reduced"}, {"measurement": "glutamine consumption", "setting": "H1299 and U87 cells", "result": "significant reduction"}]}
{"compound": "N[C@@H](CCC(=O)N[C@@H](CS)C(=O)NCC(=O)O)C(=O)O", "note": "[GSH]", "values": [{"measurement": "combination treatment-elevated ROS level in mitochondria", "setting": "U251 cells [2]", "result": "reduced the combination treatment-elevated ROS level in mitochondria"}, {"measurement": "combination-induced cell death", "setting": "U251 cells [3]", "result": "dramatically rescued the combination-induced cell death"}]}
{"compound": "N", "note": "[ammonia]", "values": [{"measurement": "restoration of pimozide-stimulated SREBP-1 activation, FASN/SCD1 and ASCT2 expression", "setting": "SREBP-1/2 cleavage; NH3·H2O 4 mM, after glutamine absence, GPNA or CB-839", "result": "fully restored"}, {"measurement": "restoration of SREBP activation and FASN/SCD1 expression inhibited by CB-839", "setting": "SREBP activation; 4 mM", "result": "strongly restore SREBP activation"}, {"measurement": "SREBP-1 and -2 cleavage, FASN and SCD1 expression", "setting": "SREBP-1 and -2 cleavage; in the presence of glucose 5 mM, NH4Cl, serum-free", "result": "induced SREBP-1 and -2 cleavage; also recorded: dose- and time-dependent"}, {"measurement": "SREBP-1 translocation into the nucleus", "setting": "SREBP-1 and -2 cleavage", "result": "markedly stimulated SREBP-1 translocation into the nucleus"}]}
{"compound": "CC(C)CCC[C@@H](C)[C@H]1CC[C@H]2[C@@H]3CC=C4C[C@@H](O)CC[C@]4(C)[C@H]3CC[C@]12C", "note": "[cholesterol]", "values": [{"measurement": "pimozide treatment-elevated ASCT2 expression", "setting": "ASCT2", "result": "suppressed"}]}
{"compound": "N[C@@H](CCC(=O)O)C(=O)[O-].O.[Na+]", "note": "[glutamate, L-Glutamic acid monosodium salt monohydrate]", "values": [{"measurement": "SREBP-1 translocation into the nucleus", "setting": "SREBP-1 and -2 cleavage", "result": "failed to do so"}]}
{"compound": "C[C@H](O)C(=O)[O-].[Na+]", "note": "[lactate, sodium L-lactate]", "values": [{"measurement": "SREBP-1 translocation into the nucleus", "setting": "SREBP-1 and -2 cleavage", "result": "failed to do so"}]}
{"compound": "O=c1[nH]c2ccccc2n1C1CCN(CCCC(c2ccc(F)cc2)c2ccc(F)cc2)CC1", "note": "[pimozide]", "values": [{"measurement": "toxic effects on normal human astrocytes", "setting": "[4]", "result": "no toxic effects"}, {"measurement": "toxicity in mice", "setting": "GBM30-derived xenograft [5]", "result": "toxic"}, {"measurement": "time of treatment until mice died", "setting": "GBM30-derived xenograft [6]", "result": "6 to 8", "unit": "days"}]}
{"compound": "O=C([O-])CCC(=O)C(=O)[O-].[Na+].[Na+]", "note": "[α-KG, α-Ketoglutaric acid sodium salt]", "values": [{"measurement": "SREBP-1 translocation into the nucleus", "setting": "SREBP-1 and -2 cleavage", "result": "failed to do so"}]}
